Reference: ChEMBL document CHEMBL1201862, “PubChem BioAssay data set” (2004)
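These data come from cells grown in 96-well plates and exposed to compound for 48 hours at five concentrations. The concentration for 50% growth inhibition is given as GI50.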 Calls of active or inactive are those of the source. Cut-off read from the data, not from the text of the source: active = GI50 up to about 1.1 µM and inactive = higher.

Experiments:
Assay in all cases: DTP human tumour cell line panel, 48 h
U-251 = tested on: U-251
ACHN = tested on: ACHN
UO-31 = tested on: UO-31
MDA-MB-435 = tested on: MDA-MB-435
OVCAR-8 = tested on: OVCAR-8
SF-539 = tested on: SF-539
SK-MEL-2 = tested on: SK-MEL-2
KM12 = tested on: KM12
HCC 2998 = tested on: HCC 2998
CAKI-1 = tested on: CAKI-1
HCT-15 = tested on: HCT-15
MDA-N = tested on: MDA-N
RPMI-8226 = tested on: RPMI-8226
SNB-75 = tested on: SNB-75
Hs-578T = tested on: Hs-578T
SNB-19 = tested on: SNB-19
CCRF-CEM = tested on: CCRF-CEM
PC-3 = tested on: PC-3
MOLT-4 = tested on: MOLT-4
NCI-H522 = tested on: NCI-H522
TK-10 = tested on: TK-10
LOX IMVI = tested on: LOX IMVI
MDA-MB-231 = tested on: MDA-MB-231
K562 = tested on: K562
OVCAR-5 = tested on: OVCAR-5
COLO 205 = tested on: COLO 205
NCI-H460 = tested on: NCI-H460
HCT-116 = tested on: HCT-116
EKVX = tested on: EKVX
786-0 = tested on: 786-0
IGROV-1 = tested on: IGROV-1
RXF 393 = tested on: RXF 393
OVCAR-4 = tested on: OVCAR-4
UACC-62 = tested on: UACC-62
NCI/ADR-RES = tested on: NCI/ADR-RES
MCF7 = tested on: MCF7
SW-620 = tested on: SW-620
SR = tested on: SR
SF-268 = tested on: SF-268
SK-MEL-5 = tested on: SK-MEL-5
SN12C = tested on: SN12C
HOP-92 = tested on: HOP-92
DU-145 = tested on: DU-145
UACC-257 = tested on: UACC-257
HT-29 = tested on: HT-29
M14 = tested on: M14
SF-295 = tested on: SF-295
HOP-62 = tested on: HOP-62
NCI-H23 = tested on: NCI-H23
SK-MEL-28 = tested on: SK-MEL-28
A498 = tested on: A498
SK-OV-3 = tested on: SK-OV-3
HL-60 = tested on: HL-60
OVCAR-3 = tested on: OVCAR-3
A549 = tested on: A549
BT-549 = tested on: BT-549
Malme-3M = tested on: Malme-3M
NCI-H226 = tested on: NCI-H226
T47D = tested on: T47D

C=CCNC1=C2C[C@@H](C)C[C@@H](OC)[C@H](OC(=O)CN)[C@H](C)/C=C(\C)[C@@H](OC(N)=O)[C@H](OC)/C=C\C=C(/C)C(=O)NC(=CC1=O)C2=O
GI50 (U-251): 1.29 µM (inactive) | GI50 (ACHN): 5.13 µM (inactive) | GI50 (UO-31): 5.87 µM (inactive) | GI50 (MDA-MB-435): 0.418 µM (active) | GI50 (OVCAR-8): 0.904 µM (active) | GI50 (SF-539): 0.883 µM (active) | GI50 (SK-MEL-2): 0.453 µM (active) | GI50 (KM12): 0.27 µM (active) | GI50 (HCC 2998): 0.27 µM (active) | GI50 (CAKI-1): 4.6 µM (inactive) | GI50 (HCT-15): 3.49 µM | GI50 (MDA-N): 0.223 µM (active) | GI50 (RPMI-8226): 3.59 µM (inactive) | GI50 (SNB-75): 1.7 µM (inactive) | GI50 (Hs-578T): 7.73 µM (inactive) | GI50 (SNB-19): 5.4 µM (inactive) | GI50 (CCRF-CEM): 1.27 µM (inactive) | GI50 (PC-3): 0.4 µM (active) | GI50 (MOLT-4): 1.21 µM (inactive) | GI50 (NCI-H522): 0.706 µM (active) | GI50 (TK-10): 0.355 µM (active) | GI50 (LOX IMVI): 0.528 µM (active) | GI50 (MDA-MB-231): 3.71 µM (inactive) | GI50 (K562): 0.337 µM (active) | GI50 (OVCAR-5): 6.25 µM (inactive) | GI50 (COLO 205): 0.204 µM (active) | GI50 (NCI-H460): 0.504 µM (active) | GI50 (HCT-116): 0.575 µM (active) | GI50 (EKVX): 5.77 µM (inactive) | GI50 (786-0): 1.49 µM (inactive) | GI50 (IGROV-1): 0.927 µM (active) | GI50 (RXF 393): 1.95 µM (inactive) | GI50 (OVCAR-4): 4.35 µM (inactive) | GI50 (UACC-62): 0.381 µM (active) | GI50 (NCI/ADR-RES): 36.1 µM (inactive) | GI50 (MCF7): 0.162 µM (active) | GI50 (SW-620): 0.183 µM (active) | GI50 (SR): 0.134 µM (active) | GI50 (SF-268): 5.73 µM (inactive) | GI50 (SK-MEL-5): 0.476 µM (active) | GI50 (SN12C): 0.497 µM (active) | GI50 (HOP-92): 3.41 µM (inactive) | GI50 (DU-145): 0.783 µM (active) | GI50 (UACC-257): 0.528 µM (active) | GI50 (HT-29): 0.0406 µM (active) | GI50 (M14): 0.371 µM (active) | GI50 (SF-295): 0.488 µM (active) | GI50 (HOP-62): 0.521 µM (active) | GI50 (NCI-H23): 0.48 µM (active) | GI50 (SK-MEL-28): 2.05 µM (inactive) | GI50 (A498): 0.74 µM (active) | GI50 (SK-OV-3): 0.162 µM (active) | GI50 (HL-60): 1.69 µM (inactive) | GI50 (OVCAR-3): 1.16 µM (inactive) | GI50 (A549): 0.359 µM (active) | GI50 (BT-549): 10.3 µM (inactive) | GI50 (Malme-3M): 0.456 µM (active)

Cn1c(C(C)(C)OC(=O)Oc2ccccc2)cnc1[N+](=O)[O-]
GI50 (U-251): > 100 µM (inactive) | GI50 (ACHN): > 100 µM (inactive) | GI50 (UO-31): > 100 µM (inactive) | GI50 (MDA-MB-435): > 100 µM (inactive) | GI50 (OVCAR-8): 70.6 µM (inactive) | GI50 (NCI-H226): 36.6 µM (inactive) | GI50 (SF-539): > 100 µM (inactive) | GI50 (SK-MEL-2): > 100 µM (inactive) | GI50 (KM12): 58.6 µM (inactive) | GI50 (CAKI-1): > 100 µM (inactive) | GI50 (HCT-15): > 100 µM | GI50 (RPMI-8226): 21 µM (inactive) | GI50 (SNB-75): > 100 µM (inactive) | GI50 (Hs-578T): > 100 µM (inactive) | GI50 (SNB-19): > 100 µM (inactive) | GI50 (PC-3): > 100 µM (inactive) | GI50 (MOLT-4): 16.7 µM (inactive) | GI50 (NCI-H522): 70.8 µM (inactive) | GI50 (TK-10): > 100 µM (inactive) | GI50 (MDA-MB-231): 26.1 µM (inactive) | GI50 (K562): 59.2 µM (inactive) | GI50 (OVCAR-5): > 100 µM (inactive) | GI50 (COLO 205): 71.1 µM (inactive) | GI50 (T47D): > 100 µM (inactive) | GI50 (NCI-H460): 80.9 µM (inactive) | GI50 (HCT-116): 92.5 µM (inactive) | GI50 (EKVX): 42.9 µM (inactive) | GI50 (786-0): > 100 µM (inactive) | GI50 (IGROV-1): 55.6 µM (inactive) | GI50 (RXF 393): > 100 µM (inactive) | GI50 (OVCAR-4): 38.7 µM (inactive) | GI50 (UACC-62): 55.6 µM (inactive) | GI50 (NCI/ADR-RES): > 100 µM (inactive) | GI50 (MCF7): 63 µM (inactive) | GI50 (SW-620): 72.8 µM (inactive) | GI50 (SR): 16.8 µM (inactive) | GI50 (SF-268): > 100 µM (inactive) | GI50 (SK-MEL-5): 53.3 µM (inactive) | GI50 (SN12C): 19.7 µM (inactive) | GI50 (HOP-92): > 100 µM (inactive) | GI50 (DU-145): > 100 µM (inactive) | GI50 (UACC-257): 36 µM (inactive) | GI50 (HT-29): 34 µM (inactive) | GI50 (M14): > 100 µM (inactive) | GI50 (SF-295): > 100 µM (inactive) | GI50 (HOP-62): > 100 µM (inactive) | GI50 (NCI-H23): > 100 µM (inactive) | GI50 (SK-MEL-28): > 100 µM (inactive) | GI50 (A498): > 100 µM (inactive) | GI50 (SK-OV-3): > 100 µM (inactive) | GI50 (HL-60): 36.5 µM (inactive) | GI50 (OVCAR-3): 93.5 µM (inactive) | GI50 (A549): > 100 µM (inactive) | GI50 (BT-549): > 100 µM (inactive) | GI50 (Malme-3M): 32.3 µM (inactive)
